Values joined by “and” are separate entries in the source; they are usually repeats but may differ in a detail not shown here. Identical values can stand only once. “Also recorded” adds a separate entry of the source.
Columns and labels:
[1] = test system: AKT phosphorylation in ZR75-30 cells; experiment: HRG-induced AKT phosphorylation ELISA in ZR75-30; format: cell-based, human; details: ZR75-30, dose titration 24 hours, 5 nM HRG 1β EGF domain 10 minutes
[2] = test system: signaling proteins in BT474 breast cancer cells; experiment: Western blot of signaling proteins in BT474 cells; format: cell-based; details: BT474, dose range 24 hours, heregulin stimulation
Method: Levels of pErbB2, pErbB3, pErk and pAKT and their corresponding total protein levels are determined on cell lysates by Western blot analysis.

BT-474 cells = experiment: cell impedance proliferation assay (RT-CES); format: cell-based; details: calculated 68 hours after treatment, read-out: IC50 of inhibition of cell impedance
[3] = molecular target: T1, recombinant extracellular domain of ErbB2 (Homo sapiens, UniProt P04626); experiment: specificity competition ELISA on ErbB2-coated plates; details: half-maximal binding concentration of B2B3-1
T1 construct: Plates are coated with the recombinant extracellular domain of either ErbB2 or ErbB3
Excerpt: Plates are coated with the recombinant extracellular domain of either ErbB2 or ErbB3.

[4] = test system: MALME-3M melanoma cells (ErbB2 and ErbB3 receptors); experiment: cell binding by flow cytometry, apparent binding affinity; details: MALME-3M cells
Method: Cell binding is assessed by flow cytometry and apparent binding affinities are determined for each molecule. Control cells are incubated with secondary antibody alone.

[5] = test system: human BT-474-M3 xenografts; experiment: dose response in BT-474-M3 breast cancer xenograft model; format: in vivo, nude mice; details: 0.3, 1, 3, 10, 30 or 90 mg/kg i.p. every 3 days, 12 doses
Method: All doses are administered interperitoneally (i.p.). Tumor size is measured twice a week and the corresponding tumor volume is calculated.

[6] = test system: SKOV-3 (human ovarian adenocarcinoma) xenograft; experiment: SKOV-3 xenograft model; format: in vivo, mice; details: SKOV-3, 30 mg/kg every 3 days
Excerpt: (§1) Calu-3 (human lung adenocarcinoma; FIG. 17A), SKOV-3 (human ovarian adenocarcinoma; FIG. 17B), NCI-N87 (human gastric carcinoma; FIG. 17C), ACHN (human kidney adenocarcinoma; FIG. 17D), and MDA-MB-361 (human breast adenocarcinoma; FIG. 17E) xenograft model are shown.

[7] = test system: NCI-N87 (human gastric carcinoma) xenograft; experiment: NCI-N87 xenograft model; format: in vivo, mice; details: NCI-N87, 30 mg/kg every 3 days
Excerpt: as §1

[8] = test system: ACHN (human kidney adenocarcinoma) xenograft; experiment: ACHN xenograft model; format: in vivo, mice; details: ACHN (4.5×10^4 ErbB2 receptors/cell), 30 mg/kg every 3 days
Excerpt: as §1

[9] = test system: MDA-MB-361 (human breast adenocarcinoma) xenograft; experiment: MDA-MB-361 xenograft model; format: in vivo, mice; details: MDA-MB-361, 30 mg/kg every 3 days
Excerpt: as §1

[10] = test system: wild type ADRr xenografts; experiment: wild type ADRr breast cancer xenograft model; format: in vivo, nude mice; details: 30 mg/kg every 3 days
ADRr-E2 xenografts = experiment: ADRr-E2 (ErbB2 over-expressing) xenograft model; format: in vivo, nude mice; details: ADRr-E2, 30 mg/kg every 3 days
Excerpt: ErbB2 is over-expressed in ADRr breast cancer cells using a retroviral expression system. Transfected cells expressing high levels of ErbB2 (ADRr-E2) are selected using FACS and subsequently injected subcutaneously into nude mice to establish xenograft tumors.

[11] = test system: p27^kip1 in BT474-M3 breast tumor cells; experiment: p27kip1 sub-cellular location by immunofluorescence; format: cell-based; details: 1 μM, 6 hours
Method: The sub-cellular location of p27^kip1 is assessed using immunofluorescence techniques.

[12] = test system: Cyclin D1 in BT-474-M3 cells; experiment: Cyclin D1 Western blot; format: cell-based; details: 72 hours
Excerpt: The cytoskeleton protein vinculin is used as a protein loading control in this experiment.

[13] = test system: phosphorylated ErbB3 in BT-474-M3 xenograft tumors; experiment: pErbB3 Western blot of xenograft tumors; format: in vivo; details: 30 mg/kg every 3 days, 4 doses, harvested 24 hours after final dose
Excerpt: Equal quantities of protein are loaded in each lane and total protein levels are controlled by probing for beta tubulin.

[14] = test system: control BT-474-M3 breast cancer cell xenografts; experiment: BT-474-M3 shControl xenografts; format: in vivo, nude mice; details: 30 mg/kg B2B3-1 every 3 days or 10 mg/kg trastuzumab every week, i.p.
Method: (§2) ShRNA technology is applied to knock out the activity of the tumor suppressor gene phosphatase and tensin homolog (PTEN) in BT-474-M3 breast cancer cells. Briefly, cultured BT-474-M3 cells are transfected with shPTEN or shControl RNA by retroviral transfection. Transfected cells with reduced PTEN are selected using FACS and subsequently injected subcutaneously into the right flank of nude mice to establish xenograft tumors. Cells transfected with a control vector are injected into the left flank of the same mouse. […] All injections are done i.p.

[15] = test system: BT-474-M3 shPTEN xenografts; experiment: BT-474-M3 shPTEN xenografts (reduced PTEN activity); format: in vivo, nude mice; details: 30 mg/kg B2B3-1 every 3 days or 10 mg/kg trastuzumab every week, i.p.
Method: as §2

[16] = single dose pharmacokinetics in nu/nu mice; format: in vivo; details: for AUC / Clearance / T½β: Mouse (single dose)
Method: Blood is collected pre-dose and at 0.5, 4, 8, 24, 48, 72, and 120 hours post dose. Three mice are used for each time point. […] The HSA ELISA utilizes a polyclonal-anti HSA capture antibody and a HRP-conjugated polyclonal anti-HSA detection antibody.

[17] = test system: BT-474-M3 xenograft tumors; experiment: q7d versus q3d dosing in BT-474-M3 xenografts; format: in vivo, athymic nude mice (nu/nu); details: intraperitoneal
Method: Mice receive a subcutaneous estrogen-releasing implant in the opposite flank (0.72 mg pellet, 60 day, slow-release, Innovative Research of America, Sarasota, Fla.) 24 h prior to the injection of 20×10^6 human BT-474-M3cells in PBS. […] Tumors are measured twice a week using digital calipers. Tumor volume is calculated using the formula: π/6×(W^2×L), where W is the short diameter and L is the long diameter. […] PBS vehicle is used as a negative control.

[18] = test system: pErbB3 and pAKT in BT-474-M3 cells; experiment: Western blot of heregulin induced ErbB3 activity in BT-474-M3 cells; format: cell-based; details: BT-474-M3, 24 hours, 10 nM or 100 nM, with or without 5 nM HRG 1β EGF
Excerpt: Lysates are subjected to immunoblot analysis for ErbB3, pErbB3, AKT, and pAKT.

BT-474-M3 xenograft = experiment: combination with trastuzumab in BT-474-M3 xenograft model; format: in vivo, athymic nude mice (nu/nu); details: single agent
Method: Mice receive a subcutaneous estrogen-releasing implant in the opposite flank (0.72 mg pellet, 60 day, slow-release, Innovative Research of America, Sarasota, Fla.) 24 h prior to the injection of 20×10^6 human BT-474-M3cells in PBS. Dosing is initiated when tumor growth is established (tumor volumes of approximately 400 mm^3). Tumors are measured twice a week using digital calipers. Tumor volume is calculated using the formula: π/6×(W^2×L), where W is the short diameter and L is the long diameter.

For “B2B3-1: bispecific scFv antibody fusion: anti-ErbB3 scFv H3 and anti-ErbB2 scFv B1D2 joined by a modified human serum albumin (HSA) linker”, the “inhibition of HRG induced AKT phosphorylation” value [1] was “inhibits”, the “levels of pErbB2” value [2] was “reduced in a dose-dependent manner” and the “levels of pErbB3” value [2] was “reduced in a dose-dependent manner”. The IC50 (BT-474 cells) was 33 nM, the “blocking of binding to ErbB2-coated plates by soluble extracellular domains of EGFR, ErbB2, ErbB3 or ErbB4” value [3] was “only soluble ErbB2 extracellular domain blocked; also recorded: binds specifically” and the “apparent binding affinity KD” value [4] was “significant increase in apparent binding affinity”. For the same substance, the complete regressions [5] was “Complete regressions were observed in each of the B2B3-1 treatment groups except mice treated with the lowest dose”, the “tumor size compared to the control group” value [5] was “significant reduction” and the tumor size reduction [6] was “efficacious”. For the same substance, the tumor size reduction [7] was “efficacious”, the tumor size reduction [8] was “worked less well” and the tumor size reduction [9] was “efficacious”. The xenograft response [10] was “no response; also recorded: non-responder”, the xenograft response (ADRr-E2 xenografts) was “responded; also recorded: responder” and the “sub-cellular location of p27^kip1” value [11] was “translocated to the nucleus; also recorded: translocation of cell cycle inhibitor p27^kip1 to the nucleus”. The “levels of Cyclin D1 compared to untreated cells” value [12] was “decrease”, the “pErbB3 in tumors compared to HSA treated tumors” value [13] was “significantly less pErbB3” and the “size of tumors formed by control BT-474-M3 cells” value [14] was “promoted a reduction”. The “size of tumors formed by BT-474-M3 cells lacking expression of PTEN” value [15] was “promoted a reduction”, the AUC ([16]; 5 mg/kg IV) was 1.58E+03 hr-μg/ml and the Clearance ([16]; 5 mg/kg IV) was 3.19 mL/h/kg. For the same substance, the T½β ([16]; 5 mg/kg IV, 5 mg/kg) was 17 h and 16.9 h, the AUC ([16]; 15 mg/kg IV) was 6.10E+03 hr-μg/ml and the Clearance ([16]; 15 mg/kg IV) was 2.47 mL/h/kg. The T½β ([16]; 15 mg/kg IV, 15 mg/kg) was 16 h and 16.2 h, the AUC ([16]; 30 mg/kg IV) was 1.18E+04 hr-μg/ml and the Clearance ([16]; 30 mg/kg IV) was 2.54 mL/h/kg. The T½β ([16]; 30 mg/kg IV, 30 mg/kg) was 23 h and 22.6 h, the AUC ([16]; 45 mg/kg IV) was 1.84E+04 hr-μg/ml and the Clearance ([16]; 45 mg/kg IV) was 2.46 mL/h/kg. For the same substance, the T½β ([16]; 45 mg/kg IV, 45 mg/kg) was 18 h and 17.5 h, the dose-exposure relationship ([16]; nu/nu mice, 5, 15, 30 and 45 mg/kg bolus doses) was “linear increase in overall exposure” and the “efficacy of q7d dosing (66, 132, 198 mg/kg) versus 30 mg/kg q3d” value [17] was “equivalent efficacy”. For the same substance, the “inhibition of pAKT” value [18] was “in a ligand dependent manner”, the “inhibition of pErbB3” value [18] was “in a ligand dependent manner” and the “mice with completely regressed tumors” value (BT-474-M3 xenograft; B2B3-1 3 mg/kg q3d) was 0 out of 10. For the same substance, the “mice with completely regressed tumors” value (BT-474-M3 xenograft; B2B3-1 10 mg/kg q3d) was 0 out of 10.

Source: patent US20110059076A1, “HUMAN SERUM ALBUMIN LINKERS AND CONJUGATES THEREOF” (priority 2008, published 2011)
